In this experiment the target is T1, GST-GK derived from human liver GK (Homo sapiens, UniProt P35557).
T1 construct: made in house; host or cells: Escherichia coli DH5α
T1 sequence (P35557 1-466 isoform P35557-2): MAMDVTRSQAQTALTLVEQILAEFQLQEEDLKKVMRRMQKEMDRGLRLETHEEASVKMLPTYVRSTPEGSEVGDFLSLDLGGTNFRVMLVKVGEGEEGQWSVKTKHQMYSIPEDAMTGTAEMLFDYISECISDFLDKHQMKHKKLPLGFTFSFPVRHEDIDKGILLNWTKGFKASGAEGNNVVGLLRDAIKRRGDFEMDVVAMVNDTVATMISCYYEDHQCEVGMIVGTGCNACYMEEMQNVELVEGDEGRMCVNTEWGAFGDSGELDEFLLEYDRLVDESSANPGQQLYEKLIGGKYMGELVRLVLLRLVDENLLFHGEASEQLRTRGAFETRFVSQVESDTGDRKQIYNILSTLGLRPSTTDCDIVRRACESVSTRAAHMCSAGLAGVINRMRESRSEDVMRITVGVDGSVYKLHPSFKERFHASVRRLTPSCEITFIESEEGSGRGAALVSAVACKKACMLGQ
Nature of the experiment: In vitro GK activity measurement test (G6PDH-coupled, OD340). It is filed as biochemical. The conditions noted are these: test compound 1 μmol/L; glucose 2.5 mmol/L; 25° C.; OD340 slope with compound / without compound; read-out: GK activation rate (%). The text has this:
cDNA (GenBank Accession No. NM_033507, human glucokinase, variant 2) encoding human liver-type GK polypeptide was cloned by performing a polymerase chain reaction (hereinafter referred to as “PCR”) using a human liver cDNA library (Human liver QUICK-Clone cDNA, TAKARA BIO INC.), and the thus cloned cDNA was then introduced into an expression vector (pGEX-3X, GE Healthcare Japan) for glutathione S transferase (hereinafter referred to as GST) fusion protein expression. The resulting vector was introduced into Escherichia coli (Competent high DH5α, Toyobo Co., Ltd.), and the transformed Escherichia coli was then cultured at 37° C. Thereafter, Isopropyl β-D-1-thiogalactopyranoside (final concentration: 1 mmol/L, Sigma Aldrich Japan) was added to the culture, and the obtained mixture was then cultured at 30° C. for 3 hours. Thereafter, a cell mass was recovered. The recovered cell mass was subjected to freezing-and-thawing, and the resulting cell mass was then suspended in phosphate buffer with final concentration of 1% Triton X-100, followed by disintegration with an ultrasonic disruptor. The homogenate was centrifuged at 33,200 rpm at 4° C. for 1 hour. Thereafter, the supernatant was recovered, and a GST-GK fusion protein was then purified using a glutathione column (GSTrap FF, GE Healthcare Japan). The obtained GST-GK fusion protein was divided into some portions each having a small volume, and the thus divided proteins were then preserved at −80° C.
A GK assay method was carried out at 25° C. at a final incubation volume of 100 μL in a flat-bottom 96-well assay plate. An assay buffer comprised 25 mmol/L Hepes buffer (pH 7.1), 25 mmol/L KCl, 2.5 mmol/L or 10 mmol/L D-glucose, 5 mmol/L ATP, 1 mmol/L nicotinamide adenine dinucleotide phosphate (abbreviated as NADP), 2 mmol/L MgCl2, 1 mmol/L dithiothreitol (DTT), 2 units/mL glucose-6 phosphate dehydrogenase (G6PDH), and 1 μg/mL GST-GK derived from human liver GK. ATP, G6PDH, and NADP were purchased from Roche Diagnostics. […] The thus mixed solution was preincubated in an incubator in which the temperature was controlled at 25° C. for 15 minutes. Subsequently, the reaction was initiated by adding 10 μL of the GST-GK solution to the reaction mixture, resulting in a final concentration of 0.1 μg/mL. After initiation of the reaction, an increase in the optical concentration at 340 nm (OD340) was monitored with a microplate spectrophotometer (Varsamax, Molecular Devices Japan K.K.) every 10 seconds over an incubation period of 10 minutes. An inclination of the OD340 increase was defined as raw data. The GK activating rate was indicated as a numerical value obtained from the expression: (Inclination of OD340 increase by addition of the test compound)/(inclination of OD340 increase without addition of the test compound). The results of the GK activating rate obtained at a test compound concentration of 1 μmol/L under the condition of a glucose concentration of 2.5 mmol/L are shown in the following table.
Take `CCNC(=O)N1CCC2(C1)CN(C(=O)Nc1ncc(Cl)s1)c1ccc(Cl)cc12` (centres unmarked) [Example 379, 5-Chloro-N1-(5-chlorothiazol-2-yl)-N1′-ethylspiro[indoline-3,3′-pyrrolidine]-1,1′-dicarboxamide]: the activity at 1 µM stood at 554%. For `CNC(=O)N1CC[C@@]2(C1)CN(C(=O)Nc1ncc(OC)s1)c1ccc(Cl)cc12` [Example 380, (R)-5-Chloro-N1-(5-methoxythiazol-2-yl)-N1′-methylspiro[indoline-3,3′-pyrrolidine]-1,1′-dicarboxamide], the activity at 1 µM is 636%. The same measure for `CNC(=O)N1CC[C@@]2(C1)CN(C(=O)Nc1ncc(OC)s1)c1ccc(C#N)cc12` [Example 381, (R)-5-Cyano-N1-(5-methoxythiazol-2-yl)-N1′-methylspiro[indoline-3,3′-pyrrolidine]-1,1′-dicarboxamide]: 465%; for `CCOC(=O)CCCc1ccc2c(c1)C1(CCN(C(=O)NC)C1)CN2C(=O)Nc1ncc(Cl)s1` (centres unmarked) [Example 419, ethyl 4-(1-((5-chlorothiazol-2-yl)carbamoyl)-1′-(methylcarbamoyl)spiro[indoline-3,3′-pyrrolidin]-5-yl)butanoate]: 535%; for `CNC(=O)N1CCC2(C1)CN(C(=O)Nc1ncc(Cl)s1)c1ccc(CCCC(=O)N3CCC3)cc12` (centres unmarked) [Example 424, 5-(4-(Azetidin-1-yl)-4-oxobutyl)-N1-(5-chlorothiazol-2-yl)-N1′-methylspiro[indoline-3,3′-pyrrolidine]-1,1′-dicarboxamide]: 438%.

Consider `CC(=O)N1CCC2(C1)CN(C(=O)Nc1ncc(Cl)s1)c1ccc(C(F)(F)F)cc12` (centres unmarked) [Example 431, 1′-acetyl-N-(5-chlorothiazol-2-yl)-5-(trifluoromethyl)spiro[indoline-3,3′-pyrrolidine]-1-carboxamide], for which the activity at 1 µM was determined as 432%.

As for `CNC(=O)N1CCC2(C1)CN(C(=O)Nc1ncc(Cl)s1)c1ccc(C(F)(F)F)cc12` (centres unmarked) [Example 432, N1-(5-Chlorothiazol-2-yl)-N1′-methyl-5-(trifluoromethyl)spiro[indoline-3,3′-pyrrolidine]-1,1′-dicarboxamide], the activity at 1 µM turned out to be 613%.

As for `COc1cnc(NC(=O)N2CC3(CCN(C(C)=O)C3)c3cc(C(F)(F)F)ccc32)s1` (centres unmarked) [Example 437, 1′-Acetyl-N-(5-methoxythiazol-2-yl)-5-(trifluoromethyl)spiro[indoline-3,3′-pyrrolidine]-1-carboxamide], the activity at 1 µM came out at 506%. The figure for `CNC(=O)N1CCC2(C1)CN(C(=O)Nc1ncc(OC)s1)c1ccc(C(F)(F)F)cc12` (centres unmarked) [Example 439, N1-(5-Methoxythiazol-2-yl)-N1′-methyl-5-(trifluoromethyl)spiro[indoline-3,3′-pyrrolidine]-1,1′-dicarboxamide] is 520%; for `COc1cnc(NC(=O)N2CC3(CCN(C(=O)CO)C3)c3cc(C(F)(F)F)ccc32)s1` (centres unmarked) [Example 441, 1′-(2-Hydroxyacetyl)-N-(5-methoxythiazol-2-yl)-5-(trifluoromethyl)spiro[indoline-3,3′-pyrrolidine]-1-carboxamide] it is 416%; for `CC(=O)N1CC(CNC(=O)N2CCC3(C2)CN(C(=O)Nc2ncc(Cl)s2)c2ccc(C(F)(F)F)cc23)C1` (centres unmarked) [Example 445, N1′-((1-acetylazetidin-3-yl)methyl)-N1-(5-chlorothiazol-2-yl)-5-(trifluoromethyl)spiro[indoline-3,3′-pyrrolidine]-1,1′-dicarboxamide] it is 500%. The figure for `CNC(=S)N1CCC2(C1)CN(C(=O)Nc1ncc(Cl)s1)c1ccc(Cl)cc12` (centres unmarked) [Example 449, 5-Chloro-N-(5-chlorothiazol-2-yl)-1′-(methylcarbamothioyl)spiro[indoline-3,3′-pyrrolidine]-1-carboxamide] is 633%; for `COC(=O)N1CCC2(C1)CN(C(=O)Nc1ncc(SCCCNC(=O)C3CC3)s1)c1ccc(Cl)cc12` (centres unmarked) [Example 454, methyl 5-chloro-1-((5-((3-(cyclopropanecarboxamido)propyl)thio)thiazol-2-yl)carbamoyl)spiro[indoline-3,3′-pyrrolidine]-1′-carboxylate] it is 575%. The same measure for `COC(=O)NCCCSc1cnc(NC(=O)N2CC3(CCN(C(=O)OC)C3)c3cc(Cl)ccc32)s1` (centres unmarked) [Example 455, methyl 5-chloro-1-((5-((3-((methoxycarbonyl)amino)propyl)thio)thiazol-2-yl)carbamoyl)spiro[indoline-3,3′-pyrrolidine]-1′-carboxylate]: 606%. Regarding `O=C(NCCO)N1CCC2(C1)CN(C(=O)Nc1ncc(Cl)s1)c1ccc(Cl)cc12` (centres unmarked) [Example 459, 5-chloro-N1-(5-chlorothiazol-2-yl)-N1′-(2-hydroxyethyl)spiro[indoline-3,3′-pyrrolidine]-1,1′-dicarboxamide], the activity at 1 µM was found to be 537%. The figure for `CCOC(=O)CCNC(=O)N1CCC2(C1)CN(C(=O)Nc1ncc(Cl)s1)c1ccc(Cl)cc12` (centres unmarked) [Example 462, Ethyl 3-(5-chloro-1-((5-chlorothiazol-2-yl)carbamoyl)spiro[indoline-3,3′-pyrrolidin]-1′-ylcarboxamido)propionate] is 454%. The figure for `O=C(NCCCO)N1CCC2(C1)CN(C(=O)Nc1ncc(Cl)s1)c1ccc(Cl)cc12` (centres unmarked) [Example 464, 5-chloro-N1-(5-chlorothiazol-2-yl)-N1′-(3-hydroxypropyl)spiro[indoline-3,3′-pyrrolidine]-1,1′-dicarboxamide] is 526%. The same measure for `CNC(=O)CCNC(=O)N1CCC2(C1)CN(C(=O)Nc1ncc(Cl)s1)c1ccc(Cl)cc12` (centres unmarked) [Example 465, 5-Chloro-N1-(5-chlorothiazol-2-yl)-N1′-(3-(methylamino)-3-oxopropyl)spiro[indoline-3,3′-pyrrolidine]-1,1′-dicarboxamide]: 474%; for `O=C(CCNC(=O)N1CCC2(C1)CN(C(=O)Nc1ncc(Cl)s1)c1ccc(Cl)cc12)N1CCC1` (centres unmarked) [Example 466, N1′-(3-(Azetidin-1-yl)-3-oxopropyl)-5-chloro-N1-(5-chlorothiazol-2-yl)spiro[indoline-3,3′-pyrrolidine]-1,1′-dicarboxamide]: 446%.

For the compound `CS(=O)(=O)CCNC(=O)N1CCC2(C1)CN(C(=O)Nc1ncc(Cl)s1)c1ccc(Cl)cc12` (centres unmarked) [Example 467, 5-chloro-N1-(5-chlorothiazol-2-yl)-N1′-(2-(methylsulfonyl)ethyl)spiro[indoline-3,3′-pyrrolidine]-1,1′-dicarboxamide], the activity at 1 µM is 480%.

As to `CCOC(=O)CCCNC(=O)N1CCC2(C1)CN(C(=O)Nc1ncc(Cl)s1)c1ccc(Cl)cc12` (centres unmarked) [Example 468, Ethyl 4-(5-chloro-1-((5-chlorothiazol-2-yl)carbamoyl)spiro[indoline-3,3′-pyrrolidin]-1′-ylcarboxamido)butanoate], the activity at 1 µM stood at 405%. The figure for `O=C(NCCCCO)N1CCC2(C1)CN(C(=O)Nc1ncc(Cl)s1)c1ccc(Cl)cc12` (centres unmarked) [Example 470, 5-chloro-N1-(5-chlorothiazol-2-yl)-N1′-(4-hydroxybutyl)spiro[indoline-3,3′-pyrrolidine]-1,1′-dicarboxamide] is 459%; for `O=C(CCCNC(=O)N1CCC2(C1)CN(C(=O)Nc1ncc(Cl)s1)c1ccc(Cl)cc12)N1CCC1` (centres unmarked) [Example 471, N1′-(4-(Azetidin-1-yl)-4-oxobutyl)-5-chloro-N1-(5-chlorothiazol-2-yl)spiro[indoline-3,3′-pyrrolidine]-1,1′-dicarboxamide] it is 470%.

The values are drawn from US8921576B2, “Spiroindoline compound, and medicinal agent comprising same” (Kowa Company, Ltd., priority 2011, dated 2014).
